Test results published in patent publication US5122448A, “Assay of anti-Epstein-Barr virus nuclear antigen antibodies with synthetic polypeptides” (Scripps Clinic and Research Foundation, priority 1990, dated 1992).
Residues, ends and D or L forms follow the SMILES beside them.

Experiments:
[1] = system: EBNA; experiment: Immunoblot of WI-L2 whole cell extracts with rabbit antipeptide antisera, blocking by polypeptide; type: binding, Epstein-Barr virus; conditions: serum 1:10, 40 ug/ml polypeptide P62, one hour
Experimental: Exemplary receptor molecules containing antibody combining sites of this invention raised in rabbits to the polypeptides shown in Table 1 were studied using the immunoblotting procedures of Towbin, et. al., Proc. Natl. Acad. Sci., U.S.A., 76:4350-4354 (1979) and Billings, et. al., Proc. Natl. Acad. Sci., U.S.A., 80:7104-7108 (1983). Further details are provided in the Materials and Methods section (III).
Extracts of EBNA producing and non-producing (control) cells were prepared to determine if receptor molecules of this invention were useful for diagnosing EBNA expression. Cells from cultures described hereinabove were washed in phosphate-buffered saline (PBS; 150 mM NaCl, 10 mM sodium phosphate, pH 7.4) containing 0.2 mM phenylmethylsulfonyl fluoride, swollen for 5 minutes in reticulocyte standard buffer (RSB; 10 mM NaCl, 10 mM Tris-HCl, pH 7.4, 1.5 mM MgCl2, 0.2 mM phenylmethylsulfonyl fluoride), and lysed by sonication in 3-5 volumes of RBS adjusted to 0.2-0.35 molar (M) NaCl. After 30 minutes on ice, the sonicate was centrifuged at 10,000×g for 15 minutes to remove cellular debris.
Cell extracts obtained above were assayed for EBNA using human sera known to contain anti-EBNA antibodies or exemplary receptor molecules of this invention. The extracts were either concentrated by precipitation with 2 volumes of ethanol at -20 degrees C. for about 18 hours, and were then dissolved in sample buffer [SB; 10% glycerol, 2% 2-mercaptoethanol, 1% sodium dodecyl sulfate (SDS), 0.002% bromphenol blue, 40 mM Tris-HCl (pH 7.4)] or diluted 1:6 in sample buffer for SDS-polyacrylamide gel electrophoresis (SDS-PAGE). 7.5% Polyacrylamide gels were cast and run according to the procedure of Laemmli, Nature, […] (1970), applying 50 to 200 micrograms of total protein per lane. […]
Anti-peptide antibodies bound to EBNA protein were detected by reacting the blots with an indicating means. […]

[2] = system: IgM and IgG antibodies to EBNA-1 and cellular proteins of Wi-L2 cells
Experimental: In an alternative procedure, the cellular protein-containing extracts were loaded onto one 13-cm-wide slot of a 7.5 percent acrylamide gel and electrophoresed. The contents of the electrophoresed gel were transferred to nitrocellulose as previously described [Billings et al., Proc. Natl. Acad. Sci. USA, 80:7104-7108 (1983); Rumpold et al., J. Immunol., 138:593-599 (1987); Rhodes et al., J. Exp. Med., 165:1026-1040 (1987)]. Sera were diluted 1:20 or 1:50 in a powdered milk (PM) buffer (3 percent powered milk in 0.05 M borate, 0.15 M NaCl, pH 8.3), and contacted with the strip for 1 hour at room temperature to immunoreact antibodies in the sera with the proteins.
128:593-599 (1987); Rhodes et al., in Herpesvirus, R. Rapp ed., Alan R. Liss, New York; p. […] 154:885-889 (1986); Geltosky et al., J. Clin. Lab Analysis, 1:153-162 (1987); and Rhodes et al., J. Exp. Med., 165:1026-1040 (1987)] and bands were detected by autoradiography as described before.
Synthetic peptide inhibitions were performed by diluting the sera 1:50 in PM and adding free peptide to a final concentration of 400 ug/ml to inhibit IgM antibody and 20 to 50 ug/ml to inhibit IgG antibody. This solution was maintained (incubated) overnight at 4 degrees C. and then used to blot as described above.

[3] = system: rabbit anti-polypeptide antibody to polypeptide P62; experiment: Competition ELISA with rabbit anti-polypeptide P62 antibody on solid phase P62; type: binding; conditions: antibody first incubated with competing polypeptide
Experimental: (§1) Anti-peptide antibody binding and inhibition studies were carried out by an enzyme-linked immunosorbent assay (ELISA) as described below.
(§2) Contact between the wells and antigen-containing solution was maintained for a predetermined time, typically 15 minutes, and at 20 degrees C., to form an antigen-coated solid phase. The solid and liquid phases were separated and the wells were washed three times with BBS.
(§3) Rabbit and human sera (body sample aliquots) were assayed for anti-polypeptide activity by adding 100 microliters of a serum diluted 1:20 in BBS per well to form a solid/liquid phase composition. Contact between the diluted sera and the antigen-coated solid phase was maintained for a predetermined time such as 1 hour, and at 20 degrees C., for an immunoreactant to form. The solid and liquid phases were separated, and the solid phase; i.e., antigen-coated, immunoreactant-containing wells, was then washed three times with BBS.

[4] = target: human anti-EBNA antibodies; experiment: ELISA: inhibition of serum antibody binding to solid phase P62 by competing polypeptide in solution
Experimental: as §1, §2, §3

[5] = system: antibodies to EBNA-1 and autoantigens; conditions: cited from earlier work
[6] = system: anti-EBNA antibodies; experiment: ELISA with polypeptide as solid phase antigen, anti-polypeptide activity of sera (OD405); type: binding, human; conditions: for OD405 × 10^3 obtained with Patient Antibodies to peptide: serum 1:20
Experimental: Briefly, microtiter wells (Costar, #3590, Cambridge, MA) were typically coated with individual polypeptides as antigens by adding 100 microliters (ul) of BBS [10 millimoler (mM) sodium borate (pH 8.3), 150 mM NaCl] containing polypeptide at a concentration of 10 micrograms per milliliter (ug/ml). Contact between the wells and antigen-containing solution was maintained for a predetermined time, typically 15 minutes, and at 20 degrees C., to form an antigen-coated solid phase. The solid and liquid phases were separated and the wells were washed three times with BBS.
Non-specific binding sites were blocked by admixing 200 microliters of 1% bovine serum albumin (BSA) in each well to form another solid/liquid phase admixture, and maintaining that solid/liquid phase admixture for 30 minutes, at 20 degrees C. The phases were separated and excess, unbound BSA was removed by washing three times with BBS.
The antibodies in human sera that immunoreacted with an adsored polypeptide were detected using an indicating means comprising alkaline phosphatase-conjugated goat anti-human Ig antibody (Tago, Burlington, Calif.). The antibodies in rabbit sera that immunoreacted with an adsorbed polypeptide were detected using an indicating means comprising alkaline phosphatase-conjugated goat anti-rabbit Ig antibody (Kirkegard & Perry Laboratories, Inc., Gaithersburg, MD). In either instance, 100 microliters of the indicating antibody diluted 1:300 in BBS were added per well to form a further solid/liquid phase composition. This solid-liquid phase composition was maintained for a predetermined time, one hour, for the formation of a reaction product between the human antibodies bound to the solid phase and the indicating means, and at 20 degrees C. The phases were separated, and the solid phase was washed 3 times with BBS.
Alkaline phosphatase-conjugated antibody bound to polypeptide specific antibody was detected by spectrophotometrically measuring the enzymatic hydrolysis of p-nitrophenyl phosphate to p-nitrophenol. Briefly, 100 microliters of p-nitrophenyl phosphate [1 milligram per milliliter in 2 mM MgCl 2, (pH 9.8), 50 mM sodium carbonate] were added to each well. The enzymatic reaction was allowed to proceed 1 hour and then the optical density at 405 nm was determined in a [sequence] spectrophotometer available from Flow Laboratories, Inglewood, Calif.

C[C@H](N)C(=O)NCC(=O)N[C@@H](C)C(=O)NCC(=O)NCC(=O)NCC(=O)N[C@@H](C)C(=O)NCC(=O)NCC(=O)N[C@@H](C)C(=O)NCC(=O)N[C@@H](C)C(=O)NCC(=O)NCC(=O)NCC(=O)N[C@@H](C)C(=O)NCC(=O)NCC(=O)N[C@@H](C)C(=O)NCC(=O)O [Polypeptide P62, H--Ala--Gly--Ala--Gly--Gly--Gly--Ala--Gly--Gly--Ala--Gly--Ala--Gly--Gly--Gly--Ala--Gly--Gly--Ala--Gly--OH] (H-AGAGGGAGGAGAGGGAGGAG-OH)
Recognition of EBNA by anti-P62 serum after preincubation with polypeptide [1]: inhibited | Inhibition of IgM antibody binding to protein bands ([2]; acute EBV-IM sera 1:50, 400 ug/ml peptide): inhibited IgM antibody binding to several protein bands | Inhibition of IgG binding to EBNA-1 band at 77 kD ([2]; convalescent and normal sera, 50 ug/ml peptide): inhibited by the peptide in all cases | Inhibition of IgM reactivities with 82-77 kD and 58 to 62 kD bands ([2]; patient four. 12 days after onset of CMV illness, 400 ug/ml peptide): inhibited | Inhibition of binding of anti-polypeptide P62 to polypeptide P62 in the solid phase [3]: 98% | Concentration of Competing Polypeptides Providing 50% Inhibition of Antibody Binding to Peptide P62 ([4]; serum N6): 0.6 micrograms per milliliter | Concentration of Competing Polypeptides Providing 50% Inhibition of Antibody Binding to Peptide P62 ([4]; serum TJ): 0.05 micrograms per milliliter | Concentration of Competing Polypeptides Providing 50% Inhibition of Antibody Binding to Peptide P62 ([4]; serum VM): 0.3 micrograms per milliliter | Immunoreactivity with sera from patients with acute EBV infection [5]: most immunoreactive | Inhibition of IgG antibodies to EBNA-1 [5]: can also be inhibited | Reactivity of sera of EBV non-immune donors to polypeptide ([6]; 27 EBV non-immune (VCA-) donors): None of the sera displayed significant reactivity | Number of anti-EBNA positive sera positive against (bound to) polypeptide ([6]; 91 ACIF anti-EBNA positive sera, 1:20 dilution): 91 | Number of EBNA positive sera that immunoreacted with polypeptide ([6]; 91 EBNA positive sera, dilution 1:320): 83 | Titer of PSS patients versus normals ([6]; Progressive Systemic Schlerosis patients): relatively higher average titer | Reaction of VCA+ sera with polypeptide ([6]; clinically normal VCA+ individuals, two dilutions): all of the VCA^+ individuals were positive | Reaction of VCA- sera with polypeptide ([6]; panel of 19 VCA- sera): None of the VCA^- sera were found to react positively | OD405 × 10^3 obtained with Patient Antibodies to peptide ([6]; MV post-mononucleosis): 631 OD405 × 10^3 | OD405 × 10^3 obtained with Patient Antibodies to peptide ([6]; MV pre-mononucleosis): 77 OD405 × 10^3 | OD405 × 10^3 obtained with Patient Antibodies to peptide ([6]; SB post-mononucleosis): 514 OD405 × 10^3 | OD405 × 10^3 obtained with Patient Antibodies to peptide ([6]; SB pre-mononucleosis): 13 OD405 × 10^3 | OD405 × 10^3 obtained with Patient Antibodies to peptide ([6]; VCA+ Normal 1): 958 OD405 × 10^3 | OD405 × 10^3 obtained with Patient Antibodies to peptide ([6]; VCA+ Normal 2): 819 OD405 × 10^3
